Test system: cigarette smoke-induced cell accumulation in murine BALF
Experiment: Cigarette smoke model
Type: in vivo, A/J mice

SMILES	Activity in the cigarette smoke model (0.3-10 mg/kg, p.o.)	Anti-inflammatory effect as monotherapy in the cigarette smoke model (monotherapy, at the dose used for co-administration (FP dosed at 50 μg/mL))
C[C@@H]1C[C@H]2[C@@H]3CCC4=CC(=O)C=C[C@]4(C)[C@@]3(F)[C@@H](O)C[C@]2(C)[C@@]1(O)C(=O)CO [dexamethasone]	inactive	
CCC(=O)O[C@]1(C(=O)SCF)[C@H](C)C[C@H]2[C@@H]3C[C@H](F)C4=CC(=O)C=C[C@]4(C)[C@@]3(F)[C@@H](O)C[C@@]21C [fluticasone propionate]		lacks any significant effect
